We go through 14 compounds from US5281608A, “Substituted tetrahydropyrido[3',4':4,5]-pyrrolo[3,2-c]quinolines” (American Home Products Corporation, priority 1992, dated 1994).

Assay [1] deals with rabbit articular chondrocytes (IL-1-induced neutral protease release). Description: Inhibition of IL-1-induced release of neutral protease from rabbit articular chondrocytes. The note with it: Oryctolagus cuniculus, Chondrocyte, human IL-1 stimulated, 24 h. In kind it is cell-based, rabbit (Male New Zealand White). The method, then:
The ability of the compounds of the invention to inhibit interleukin 1 is measured by the ability of the test compounds to inhibit the IL-1-induced release of neutral protease from rabbit articular chondrocytes.
Male New Zealand White rabbits are anesthetized with 50 mg/kg of ketamine (i.m.) and killed by an intracardiac injection of 3 mls. of Nembutal. The knee joints of both legs are resected and the articular surfaces are exposed. Cartilage slices are obtained using a scalpel and are placed in a tissue culture dish (100 mm diameter) containing 10 mls of Hank's balanced salt solution (HBSS). The chondrocytes within the cartilage slices are then liberated by a series of enzyme digestions. The slices are incubated for 10 minutes at 37° C. in 0.05% hyaluronidase (Sigma H-3884), rinsed with HBSS and incubated with 0.2% trypsin (Sigma T-2395) for 10 minutes at 37° C. The slices are rinsed again and incubated for 10 minutes at 37° C. with 1.2% collagenase (Sigma C-5138). The slices are then rinsed again with HBSS and resuspended in 10 ml of Ham's F-12 medium containing 10% fetal bovine calf serum (FCS) and 0.2 % collagenase and incubated overnight at 37° C. in a 5% CO2 incubator. The next day, the medium containing the digested cartilage fragments and liberated chondrocytes is transferred to a 15 ml centrifuge tube and the cells are collected by centrifugation and washed twice and resuspended in Ham's F-12 medium. The cells are then plated into 24-well tissue culture plates (2×10^5 cells/well) and incubated at 37° C. until confluent (usually 4-6 days).
The confluent chondrocytes are rinsed twice with serum-free Ham's F-12 medium and 1 ml is added to each well. Fifty μl of purified human IL 1 (100 Units/ml; Genzyme Corporation, Boston, Mass.) is then added to stimulate these cells to secrete neutral protease. To measure drug effects, the cells are treated with test compound 10 minutes prior to addition of IL-1. The standard screening dose is 10 μM. Twenty-four hours after IL-1 stimulation, supernatant fluids are collected and assayed for neutral protease activity.
The neutral protease activity of chondrocyte supernatant fluids is determined by their ability to degrade an insoluble protease substrate, azocoll (Sigma). Supernatants are treated for 10 minutes at room temperature with 350 μM p-aminophenylmurcuric acetate to activate the latent enzyme. Three hundred μl of supernatant is then mixed with 500μl of a 20 mg/ml suspension of azocoll and incubated at 37° C. for 18-24 hours with gentle rocking. The mixtures are centrifuged and the amount of substrate hydrolyzed is determined by measuring the absorbance of the supernatant at 520 nm.
Drug effects are calculated as the % change in enzyme activity (absorbance)by supernatants from drug-treated chondrocytes relative to enzyme activity of supernatants from vehicle-treated chondrocytes as follows: [formula]

Assay [2] relates to rat limb bones (PTH-induced bone resorption). Description: Bone resorption assay (45Ca release from rat limb bones), PTH-induced. The format is cell-based, rat (Sprague-Dawley CD). The note with it: 48 h; for IC50: Rattus norvegicus, read-out: Inhibition of Bone Resorption, PTH-Induced (IC50). The method, then:
(§1) The ability of the compounds of the invention to modify the process of bone resorption is evaluated in the bone resorption assay measuring ^45 Ca release from rat limb bones.
(§2) Limb bone preparation. Timed pregnant Sprague-Dawley CD® rats (Charles River) are administered 100 μCi ^45 CaCl2 (NEN calcium -45 NEZ-013) in 100 μl of 0.9% saline, subcutaneously, on day 18 of gestation. The rats are sacrificed the following day by CO2 asphyxiation. The fetuses are removed and the right forelimbs excised and placed in a Petri dish containing ice cold explant medium consisting of modified BGJb -Fitton Jackson media (custom formulation, Gibco No. 78-0088) adjusted to pH 7.3 to which 10 mM TES is added. The modified BGJb media is obtained without salts, glucose or bicarbonate and is supplemented before use with 0.1 mM MgCl2, 1.25 mM CaCl2, 5.3 mM KCl, 0.7 mM MgSO4, 130 mM NaCl, 1.0 mM NaH2 PO4, 1 g/L glucose, 50 mg/L Na acetate and 100 U/ml penicillin G. The medium is sterilized by passage through a 0.2 μ M filter (Nalge). Under a dissecting microscope, the bones are gently cleaned of adherent tissue and the cartilaginous ends removed. Incubation and drug treatment. The midshafts are placed, individually, on 3×3 mm squares of filter paper (Gelman GN-6 metricel filters; […] pore size) which rest on stainless steel screens in wells of 24-well culture plates containing 0.5 mL of preincubation medium. The preincubation medium is brought to 37° C. prior to transfer of bones. The preincubation medium consists of the modified BGJb medium (with salts and glucose as above), pH 7.3, containing 29 mM NaHCO3. After incubation for 18-24 hours at 37° C. in 5% CO2, the bones are transferred on their screen/filter paper supports to new plates containing, in a total volume of 0.5 mL/well at 37° C., the test compound diluted in preincubation medium supplemented with 15% heat inactivated horse serum (Gibco No. 230-6050), pH 7.3, with a bone resorption stimulating agent (e.g. parathyroid hormone [PTH] or interleukin-1 [IL-1]). For compounds that require nonaqueous solvents, dilutions are made from the appropriate stock solution with medium. In these instances, basal and bone resorption stimulated controls exposed to an equivalent concentration of the vehicle are included. An additional group of bones that have been subjected to boiling for 1 hour (kill control) are used to establish background, non cell mediated, exchange of ^45 Ca. The right ulna and radius from each fetus are used. Both bones are subjected to the same treatment and each treatment group consists of bones from 4 or more fetuses. Treatments are randomly assigned using a preclinical statistics program (PS-ALLOC). After a 48 hour incubation at 37° C. in 5% CO2, the bones are removed from the medium and extracted in 0.5 mL of 0.1N HCl for 1 or more days. Duplicate 150 μL aliquots of the incubation medium and the bone extract are analyzed for ^45 Ca radioactivity in 5 mL of liquid scintillation cocktail.
(§3) The percentage of bone ^45 Ca released into the medium is determined as follows: [formula] Results are normally expressed as the ratio of the percent ^45 Ca release of the experimental group versus the appropriate vehicle control, or as an IC50 value.

Assay [3] concerns rat limb bones (IL-1 induced bone resorption). Description: Bone resorption assay (45Ca release from rat limb bones), IL-1 induced. The format is cell-based, rat (Sprague-Dawley CD). Conditions: 48 h; for IC50: Rattus norvegicus, read-out: Inhibition of Bone Resorption, IL-1 Induced (IC50). On the procedure:
as §1, §2, §3

≈ marks a conversion by molar mass, not a printed value.

Turning to `CS(=O)(=O)c1ccc(N2CCc3[nH]c4c(cnc5cc(Cl)ccc54)c3C2)cc1` [Example 1, 3-Chloro-8,9,10,11-tetrahydro-8-[4-(methylsulfonyl)phenyl]-7H-pyrido[3',4':4,5]pyrrolo[3,2-c]quinoline], the inhibition at 10 µM in assay [1] turned out to be 40%. In assay [2], the “Inhibition of Bone Resorption, PTH-Induced (activity in words)” value was “Active” and the IC50 was determined as 0.633 µg/mL (≈ 1.54 µM). Besides, in assay [3], the “Inhibition of Bone Resorption, IL-1 Induced (activity in words)” value is given as “Active” and the IC50 worked out at 6.84 µg/mL (≈ 16.6 µM).

Turning to `N#Cc1ccc(N2CCc3[nH]c4c(cnc5cc(Cl)ccc54)c3C2)cc1` [Example 3, 4-(3-Chloro-8,9,10,11-tetrahydro-7H-pyrido[3',4':4,5]-pyrrolo[3,2-c]quinolin-8-yl)benzonitrile], the inhibition at 10 µM in assay [1] was found to be 22%.

The compound `O=C(c1cccs1)N1CCc2[nH]c3c(cnc4cc(Cl)ccc43)c2C1` [Example 4, 3-Chloro-8,9,10,11-tetrahydro-8-(2-thienylcarbonyl)-7H-pyrido[3',4':4,5]pyrrolo[3,2-c]quinoline] gave an inhibition at 0.1 µM in assay [1] (dose 0.1 μM) of 14%. In assay [1] (dose 1 μM), this compound registered an inhibition at 1 µM of 20%. In assay [1], this compound returned an inhibition at 10 µM of 64% and an IC50 of 7.3 µM. In addition, the “Inhibition of Bone Resorption, IL-1 Induced (activity in words)” value in assay [3] is given as “Active at <5 μg/ml”.

`N#Cc1ccc(C(=O)N2CCc3[nH]c4c(cnc5cc(Cl)ccc54)c3C2)cc1` [Example 5, 3-Chloro-8-(4-cyanobenzoyl)-8,9,10,11-tetrahydro-7H-pyrido[3',4':4,5]pyrrolo[3,2-c]quinoline] showed an inhibition at 10 µM in assay [1] of 28%.

As for `O=C(Nc1ccccc1)N1CCc2[nH]c3c(cnc4cc(Cl)ccc43)c2C1` [Example 7, 3-Chloro-7,9,10,11-tetrahydro-N-phenyl-8H-pyrido-[3',4':4,5]pyrrolo[3,2-c]quinoline-8-carboxamide], at 10 µM the inhibition in assay [1] was 21%.

The compound `O=C(c1cc2ccccc2s1)N1CCc2[nH]c3c(cnc4cc(Cl)ccc43)c2C1` [Example 10, 8-(Benzo[b]thien-2-ylcarbonyl)-3-chloro-8,9,10,11-tetrahydro-7H-pyrido[3',4':4,5]pyrrolo[3,2-c]quinoline] showed an inhibition at 10 µM in assay [1] of 24%. In assay [3], the “Inhibition of Bone Resorption, IL-1 Induced (activity in words)” value is “Active” and the half-inhibitory concentration (IC50) was 0.067 µg/mL (≈ 0.16 µM).

For `O=C(NC(=O)N1CCc2[nH]c3c(cnc4cc(Cl)ccc43)c2C1)c1ccccc1` [Example 13, N-Benzoyl-3-chloro-7,9,10,11-tetrahydro-8H-pyrido-[3',4':4,5]pyrrolo[3,2-c]quinoline-8-carboxamide], in assay [2], the “Inhibition of Bone Resorption, PTH-Induced (activity in words)” value was “Active” and the IC50 was determined as 0.944 µg/mL (≈ 2.33 µM). Besides, in assay [3], the “Inhibition of Bone Resorption, IL-1 Induced (activity in words)” value was “Active” and the IC50 was determined as 1.71 µg/mL (≈ 4.22 µM).

Take `S=C(Nc1ccccc1)N1CCc2[nH]c3c(cnc4cc(Cl)ccc43)c2C1` [Example 14, 3-Chloro-7,9,10,11-tetrahydro-N-phenyl-8H-pyrido-[3',4':4,5]pyrrolo[3,2-c]quinoline-8-carbothioamide]: in assay [2], the “Inhibition of Bone Resorption, PTH-Induced (activity in words)” value was “Active” and the IC50 was 1.2 µg/mL (≈ 3.05 µM). Further, in assay [3], the “Inhibition of Bone Resorption, IL-1 Induced (activity in words)” value is listed as “Active” and the IC50 was determined as 1.21 µg/mL (≈ 3.08 µM).

For `CCOC(=O)c1ccc(NC(=O)N2CCc3[nH]c4c(cnc5cc(Cl)ccc54)c3C2)cc1` [Example 15, 4-[[(3-Chloro-7,9,10,11-tetrahydro-8H-pyrido[3',4':4,5]pyrrolo-[3,2-c]quinoline-8-yl)carbonyl]amino]benzoic acid ethyl ester], in assay [2], the “Inhibition of Bone Resorption, PTH-Induced (activity in words)” value is given as “Active” and the IC50 came to 5.5 µg/mL (≈ 12.3 µM).

In the case of `O=C(NCc1ccccc1)N1CCc2[nH]c3c(cnc4cc(Cl)ccc43)c2C1` [Example 16, 3-Chloro-7,9,10,11-tetrahydro-N-(phenylmethyl)-8H-pyrido-[3',4':4,5]pyrrolo[3,2-c]quinoline-8-carboxamide], in assay [2], the “Inhibition of Bone Resorption, PTH-Induced (activity in words)” value is “Active” and the IC50 stood at 2.52 µg/mL (≈ 6.45 µM). In assay [3], the “Inhibition of Bone Resorption, IL-1 Induced (activity in words)” value is listed as “Active” and the IC50 is 6.22 µg/mL (≈ 15.9 µM).

Turning to `O=C(NC(=S)N1CCc2[nH]c3c(cnc4cc(Cl)ccc43)c2C1)c1ccccc1` [Example 17], in assay [2], the “Inhibition of Bone Resorption, PTH-Induced (activity in words)” value is “Active” and the IC50 was found to be 1.16 µg/mL (≈ 2.76 µM). Moreover, in assay [3], the “Inhibition of Bone Resorption, IL-1 Induced (activity in words)” value was “Active” and the IC50 was 1.65 µg/mL (≈ 3.92 µM).

As to `S=C(NCc1ccccc1)N1CCc2[nH]c3c(cnc4cc(Cl)ccc43)c2C1` [Example 18, 3-Chloro-7,9,10,11-tetrahydro-N-(phenylmethyl)-8H-pyrido-[3',4':4,5]pyrrolo[3,2-c]quinoline-8-carbothioamide], in assay [3], the “Inhibition of Bone Resorption, IL-1 Induced (activity in words)” value is given as “Active” and the IC50 was 2.39 µg/mL (≈ 5.87 µM).

With `COc1cccc(NC(=O)N2CCc3[nH]c4c(cnc5cc(Cl)ccc54)c3C2)c1` [Example 20, 3-Chloro-7,9,10,11-tetrahydro-N-(3-methoxyphenyl)-8H-pyrido-[3',4':4,5]pyrrolo[3,2-c]quinoline-8-carboxamide], in assay [2], the “Inhibition of Bone Resorption, PTH-Induced (activity in words)” value was “Active” and the IC50 amounted to 0.059 µg/mL (≈ 0.145 µM). Besides, in assay [3], the “Inhibition of Bone Resorption, IL-1 Induced (activity in words)” value is “Active” and the IC50 was found to be 0.0088 µg/mL (≈ 0.0216 µM).

For the compound `COc1ccc(S(=O)(=O)N2CCc3[nH]c4c(cnc5cc(Cl)ccc54)c3C2)cc1` [Example 21, 3-Chloro-8,9,10,11-tetrahydro-8-[(4-methoxyphenyl)sulfonyl]-7H-pyrido[3',4':4,5]pyrrolo[3,2-c]quinoline], in assay [3], the “Inhibition of Bone Resorption, IL-1 Induced (activity in words)” value is listed as “Active” and the IC50 is 8.48 µg/mL (≈ 19.8 µM).

The term inhibition denotes the share of the control response that was lost under treatment. Usually IC50 stands for the concentration that inhibits the measured activity by half.
